Assay results: US20040076974A1, “Liver necrosis predictive genes” (priority 2002, published 2004)
Where “and” joins values, the source holds several entries; their conditions need not be identical. Equal entries are not always repeated. Where two headings read alike, the source gives them in different places.

Key:
[1] = tested on: toxicologically relevant rat genes (rat CT array)
[2] = tested on: Sprague Dawley rats; settings: rat
How it was run: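 Toxicity calls (necrosis present or absent at 72 h) and histopathology scores were correlated with tissue gene expression from Crl:CD Sprague Dawley rats. Animals, usually 3 treated with compound by i.p. route and 3 given vehicle, were killed at 6, 24 or 72 h and tissues frozen immediately in liquid nitrogen.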

[3] = 24 h, dose 20, ratio treatment/control
[4] = 24 h, dose 20, ratio treatment/control, listed as PHEN

## C[C@@H]1C[C@H]2[C@@H]3CCC4=CC(=O)C=C[C@]4(C)[C@@]3(F)[C@@H](O)C[C@]2(C)[C@@]1(O)C(=O)CO [dexamethasone]
[1]; rat, in vivo
  60S ribosomal protein L6 expression: 0.8901 and 1.098 (2×) and 0.9353
  Adenine nucleotide translocator 1 expression: 0.9053 and 1.087 and 0.9653 and 0.9797
  Alpha-2-macroglobulin, sequence 2 expression: 0.8488 and 1.069 and 0.9789 and 0.9595
  Alpha-2-microglobulin expression: 0.9657 and 0.9413
  Alpha-tubulin expression: 0.8272 and 1.251 and 0.9313 and 1.093
  Apolipoprotein All expression: 0.7858 and 0.4198 and 0.803 and 0.4911
  Beta-tubulin, class I expression: 0.8776 and 1.559 and 0.9809 and 1.151
  Calpactin I heavy chain expression: 1.271 and 1.029
  Cofilin expression: 1.006 and 0.9999
  Collagen type II expression: 0.9739 and 1.08 and 1.31
  Cystatin C expression: 0.8226 and 0.8364 and 1.078
  Cytochrome P450 2C11 expression: 1.275
  Dynamin-1 (D100) expression: 1.017 and 1.094 and 0.908 and 0.9644
  Elongation factor-1 alpha expression: 0.8912 and 1.18 and 1.019
  F1-ATPase beta subunit expression: 0.9797 and 1.576 and 1.032 and 1.236
  Gamma-actin, cytoplasmic expression: 0.9178 and 0.883 and 0.9507
  Glutathione S-transferase theta-1 expression: 0.9901 and 0.9291 and 0.9991 and 0.8886
  Glycine methyltransferase expression: 1.124 and 1.982 and 1.013 and 1.714
  Heme oxygenase expression: 0.8094 and 0.8311 and 0.7467
  High affinity IgE receptor gamma chain (FcERIgamma) expression: 0.9808 and 0.8055 and 0.8812 and 0.8054
  IgE binding protein expression: 1.039 and 0.992 and 1.096
  Insulin-like growth factor I, exon 6 expression: 0.8498 and 0.631 and 1.058 and 0.6827
  Melanoma-associated antigen ME491 expression: 1.042 and 1.057 and 0.9592 and 0.993
  NADP-dependent isocitrate dehydrogenase, cytosolic expression: 0.9222 and 0.7332 and 0.8853 and 0.7428
  NIPK expression: 0.9259 and 0.8897 and 0.7728
  Osteoactivin expression: 0.8926 and 1.029 and 0.8681
  Phase-1 RCT-39 expression: 0.9168
  Phase-1 RCT-57 expression: 0.9696
  Phase-1 RCT-78 expression: 0.8839
  Phase-1 RCT-81 expression: 0.9341
  Phase-1 RCT-107 expression: 1.099 and 1.846 and 1.664
  Phase-1 RCT-138 expression: 0.9192 and 0.9399 and 0.9819
  Phase-1 RCT-146 expression: 0.9664
  Phase-1 RCT-149 expression: 0.7735
  Phase-1 RCT-164 expression: 0.8597 and 0.7256 and 0.7203
  Phase-1 RCT-179 expression: 0.9599 and 0.8496
  Phase-1 RCT-192 expression: 0.9855
  Phase-1 RCT-295 expression: 0.9503
  Stathmin expression: 1.058 and 1.063
  Uncoupling protein 2 expression: 0.8754 and 1.097 and 0.9302
  alpha-1,2-fucosyltrans-ferase expression: 0.8942 and 0.8707 and 0.7596
[2]; Sprague Dawley, in vivo, ip, 8 mg/kg, 72 h
  Score (histopathology liver necrosis severity score): 1
[2]; Sprague Dawley, in vivo, ip, 30 mg/kg, 72 h
  Score (histopathology liver necrosis severity score): 1
[2]; in vivo
  Liver Toxicity Necrosis Classification: no
[2]; in vivo, ip, 8 mg/kg
  Liver Necrosis: no
[2]; in vivo, ip, 30 mg/kg
  Liver Necrosis: no

## NNc1ccccc1 [phenylhydrazine]
[1]; 24 h
  Aflatoxin B1 aldehyde reductase: 0.6558 and 0.8284
[1]; [3]
  Bax (alpha): 1.114
  Proliferating cell nuclear antigen gene: 0.9203
[1]; [4]
  3-hydroxyisobutyrate dehydrogenase: 0.9143 and 0.9803
  14-3-3 zeta: 1.282 and 1.371
  60S ribosomal protein L6: 0.8081 and 0.8097
  ATPase inhibitor (rat mitochondrial IF1 protein): 0.5186 and 0.4781
  Alpha 1 - inhibitor III: 0.5075 and 0.4307
  Alpha-2-macroglobulin: 0.5649 and 0.479
  Bax (alpha): 1.115
  Beta-actin: 1.318 and 1.347
  Calpactin I heavy chain: 1.093 and 1.232
  Carbamyl phosphate synthetase I: 0.8997 and 0.8454
  Carbonic anhydrase III: 2.069 and 2.604
  Carbonyl reductase: 1.013 and 1.035
  Cathepsin L, sequence 2: 1.124
  Cofilin: 1.075 and 0.9686
  Cyclin G: 1.06 and 1.18
  DNA polymerase beta: 0.6488 and 0.5275
  Dynamin-1 (D100): 0.9853 and 0.8394
  Endogenous retroviral sequence, 5′ and 3′ LTR: 1.197 and 1.103
  Enolase alpha: 0.7101 and 0.7241
  Epidermal growth factor: 0.7579 and 0.6975
  Equilbrative nitrobenzylthioinosine-sensitive nucleoside transporter: 0.6046 and 0.5693
  Extracellular-signal-regulated kinase 1: 1.377 and 1.805
  Fas antigen: 1.2 and 1.204
  Gadd45: 1.142 and 1.49
  Gadd153: 1.087 and 1.085
  Gamma-actin, cytoplasmic: 0.7836 and 0.7811
  Glucose-regulated protein 78: 0.8506 and 0.7386
  Heme oxygenase: 1.498 and 1.908
  Hepatic lipase: 0.5441 and 0.4993
  ID-1: 1.157 and 1.321
  IgE binding protein: 1.098 and 1.166
  IkB-a: 0.8328 and 0.7684
  Insulin-like growth factor I: 0.8551 and 0.7944
  Insulin-like growth factor binding protein 1: 1.056 and 0.9665
  Insulin-like growth factor binding protein 3: 0.8807 and 0.8119
  Integrin beta1: 1.12
  L-gulono-gamma-lactone oxidase: 1.301 and 1.543
  Liver fatty acid binding protein: 0.6905 and 0.5494
  MAP kinase kinase: 1.023 and 1.164
  Macrophage inflammatory protein-2 alpha: 1.132 and 1.347
  Matrin F/G: 1.071 and 0.9981
  Matrix metalloproteinase-1: 1.581 and 1.897
  Melanoma-associated antigen ME491: 0.9841
  Monocyte chemotactic protein receptor (CCR2): 1.3 and 1.499
  Multidrug resistant protein-2: 1.286 and 1.334
  N-hydroxy-2-acetylaminofluorene sulfotransferase (ST1C1): 0.5527 and 0.5091
  Nucleoside diphosphate kinase beta isoform: 1.1
  Organic anion transporter 3: 1.058
  Organic cation transporter 3: 0.9117 and 0.8387
  Ornithine decarboxylase: 1.479 and 1.694
  PAR interacting protein: 0.9791 and 0.9269
  Phase-1 RCT 252: 0.7562
  Phase-1 RCT-15: 3.553 and 2.982
  Phase-1 RCT-39: 0.9896
  Phase-1 RCT-49: 0.869 and 0.8084
  Phase-1 RCT-50: 1.203
  Phase-1 RCT-68: 1.203
  Phase-1 RCT-78: 1.292
  Phase-1 RCT-83: 0.5669 and 0.5525
  Phase-1 RCT-88: 2.1
  Phase-1 RCT-89: 0.8262
  Phase-1 RCT-92: 2.107
  Phase-1 RCT-102: 1.096
  Phase-1 RCT-137: 0.4276 and 0.4239
  Phase-1 RCT-144: 0.8929
  Phase-1 RCT-152: 0.7359 and 0.7085
  Phase-1 RCT-168: 0.7781
  Phase-1 RCT-181: 1.504
  Phase-1 RCT-182: 0.6963 and 0.8836
  Phase-1 RCT-189: 0.7721 and 0.6053
  Phase-1 RCT-191: 0.6314 and 0.7152
  Phase-1 RCT-192: 0.9295
  Phase-1 RCT-225: 1
  Phase-1 RCT-264: 0.5562 and 0.6031
  Phase-1 RCT-270: 0.728
  Phase-1 RCT-271: 1.199
  Phase-1 RCT-288: 0.8205 and 0.8069
  Phase-1 RCT-295: 1.57
  Proliferating cell nuclear antigen gene: 1.089
  Ribosomal protein L13A: 1.024
  Ribosomal protein S8: 0.7171 and 0.6731
  Ribosomal protein S17: 0.7324 and 0.6158
  Senescence marker protein-30: 0.7313 and 0.841
  Sodium/bile acid cotransporter: 0.6926 and 0.7429
  Superoxide dismutase Mn: 1.092 and 1.114
  Thymosin beta-10: 0.7195 and 0.7559
  Transthyretin: 0.4631 and 0.4873
  Ubiquitin conjugating enzyme (RAD 6 homologue): 0.7763 and 0.6535
  Uncoupling protein 2: 0.9638 and 0.9416
  Zinc finger protein: 0.8961 and 0.8505
  c-jun: 1.14 and 1.384
  c-myc: 1.235 and 1.141
  p53: 1.067 and 1.196
  {Ribosomal protein L6}: 1.368 and 1.181
[1]; rat, in vivo
  Paraoxonase 1: 0.4982 and 0.4752
[2]; in vivo
  Liver Toxicity Necrosis Classification: no
[2]; intraperitoneal, dose 20 mg/kg, 72 hours after treatment
  Liver Necrosis: no
[2]; intraperitoneal, dose 20 mg/kg, 72 hours, 1 = not remarkable, 2 and higher increasing severity
  Score (histopathology liver necrosis severity score): 1
[2]; intraperitoneal, dose 80 mg/kg, 72 hours after treatment
  Liver Necrosis: no
[2]; intraperitoneal, dose 80 mg/kg, 72 hours, 1 = not remarkable, 2 and higher increasing severity
  Score (histopathology liver necrosis severity score): 1
